Results published in patent US20250026778A1 (TIUMBIO CO., LTD., priority 2021, published 2025).
Like-named read-outs stand apart in the source and are kept apart here.

Target: T1, his-galectin-3 (Homo sapiens, UniProt P17931)
T1 construct: purchased Abcam
Experiment: TR-FRET assay (in vitro galectin-3 binding inhibitory activity test)
Details: compound at 20 μM, 60 nM his-galectin-3, 15 nM biotin-ASF
Summary of the method: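 Compound is premixed with his-galectin-3 (60 nM final), then biotin-ASF (15 nM), Tb anti-His antibody (2 nM) and streptavidin-d2 (20 nM) are added. After at least 3.5 hours at RT in HEPES/NaCl buffer with Tween 20 and BSA, TR-FRET is read at 615/665 nm. DMSO serves as the uninhibited control, ASF omission as background.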

[1] = Table 1, read-out: % Inhibitory activity (at 20 μM)
[2] = Table 2, read-out: % Inhibitory activity (at 20 μM)
[3] = read-out: % Inhibitory activity (at 20 μM), Table 1

T1 sequence (P17931 whole entry): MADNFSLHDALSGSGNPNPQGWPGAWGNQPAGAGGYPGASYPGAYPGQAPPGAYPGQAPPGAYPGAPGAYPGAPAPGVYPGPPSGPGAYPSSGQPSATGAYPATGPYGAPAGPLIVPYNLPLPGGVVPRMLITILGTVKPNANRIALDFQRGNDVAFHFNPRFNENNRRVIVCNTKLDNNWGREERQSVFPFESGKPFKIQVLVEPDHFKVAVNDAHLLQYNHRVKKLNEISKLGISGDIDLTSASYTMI

| inhibition at 20 µM [1] [%] | inhibition at 20 µM [2] [%] | Structure (SMILES) | other results |
| --- | --- | --- | --- |
| < 25 | – | O=C(O[C@@H]1[C@@H](n2cc(-c3cc(F)c(F)c(F)c3)nn2)[C@@H](O)[C@@H](CO)O[C@@]12CCCO2)c1ccccc1Cl [Compound A70, (5S,7R,8R,9S,10R)-8-hydroxy-7-(hydroxymethyl)-9-(4-(3,4,5-trifluorophenyl)-1H-1,2,3-triazol-1-yl)-1,6-dioxaspiro[4.5]decan-10-yl 2-chlorobenzoate] | – |
| < 25 | – | OC[C@H]1O[C@]2(OCC[C@H]2c2ccccc2)[C@H](O)[C@@H](n2cc(-c3cc(F)c(F)c(F)c3)nn2)[C@H]1O [Compound A30, (4S,5S,7R,8R,9S,10R)-7-(hydroxymethyl)-4-phenyl-9-(4-(3,4,5-trifluorophenyl)-1H-1,2,3-triazol-1-yl)-1,6-dioxaspiro[4.5]decane-8,10-diol] | – |
| < 25 | – | OC[C@H]1O[C@@]2(CCCCS2)[C@H](O)[C@@H](n2cc(-c3cc(F)c(F)c(F)c3)nn2)[C@H]1O [Compound A109, (2R,3R,4S,5R,6R)-2-(hydroxymethyl)-4-(4-(3,4,5-trifluorophenyl)-1H-1,2,3-triazol-1-yl)-1-oxa-7-thiaspiro[5.5]undecane-3,5-diol] | – |
| – | > 75 | O=C(N[C@@H]1CCO[C@]12O[C@H](CO)[C@H](O)[C@H](n1cc(-c3cc(F)c(F)c(F)c3)nn1)[C@H]2OCc1nn[nH]n1)c1ccc(F)c2ccccc12 [Compound A210, N-((4R,5S,7R,8R,9S,10R)-10-((2H-tetrazol-5-yl)methoxy)-8-hydroxy-7-(hydroxymethyl)-9-(4-(3,4,5-trifluorophenyl)-1H-1,2,3-triazol-1-yl)-1,6-dioxaspiro[4.5]decan-4-yl)-4-fluoro-1-naphthamide] | inhibition at 20 µM (Table 3, found values, read-out: % Inhibitory activity (at 20 μM)): 90.6% |
| – | 50 to 75 | O=C(N[C@@H]1CCO[C@]12O[C@H](CO)[C@H](O)[C@H](n1cc(-c3cc(F)c(F)c(F)c3)nn1)[C@H]2O)c1sc2ccccc2c1Cl [Compound A156, 3-chloro-N-((4R,5S,7R,8R,9S,10R)-8,10-dihydroxy-7-(hydroxymethyl)-9-(4-(3,4,5-trifluorophenyl)-1H-1,2,3-triazol-1-yl)-1,6-dioxaspiro[4.5]decan-4-yl)benzo[b]thiophene-2-carboxamide] | – |
| – | > 75 | O=C(N[C@@H]1CCO[C@]12O[C@H](CO)[C@H](O)[C@H](n1cc(-c3cc(F)c(F)c(F)c3)nn1)[C@H]2O)c1ccnc2ccccc12 [Compound A207, N-((4R,5S,7R,8R,9S,10R)-8,10-dihydroxy-7-(hydroxymethyl)-9-(4-(3,4,5-trifluorophenyl)-1H-1,2,3-triazol-1-yl)-1,6-dioxaspiro[4.5]decan-4-yl)quinoline-4-carboxamide] | – |
| – | > 75 | Cc1cc(C(=O)N[C@@H]2CCO[C@]23O[C@H](CO)[C@H](O)[C@H](n2cc(-c4cc(F)c(F)c(F)c4)nn2)[C@H]3O)c2cc(Cl)ccc2n1 [Compound A229, 6-chloro-N-((4R,5S,7R,8R,9S,10R)-8,10-dihydroxy-7-(hydroxymethyl)-9-(4-(3,4,5-trifluorophenyl)-1H-1,2,3-triazol-1-yl)-1,6-dioxaspiro[4.5]decan-4-yl)-2-methylquinoline-4-carboxamide] | – |
| < 25 | – | O=C(O[C@@H]1[C@@H](n2cc(-c3cc(F)c(F)c(F)c3)nn2)[C@@H](O)[C@@H](CO)O[C@@]12CCCO2)c1ccc(F)cc1 [Compound A79, (5S,7R,8R,9S,10R)-8-hydroxy-7-(hydroxymethyl)-9-(4-(3,4,5-trifluorophenyl)-1H-1,2,3-triazol-1-yl)-1,6-dioxaspiro[4.5]decan-10-yl 4-fluorobenzoate] | – |
| – | > 75 | O=C(N[C@@H]1CCO[C@]12O[C@H](CO)[C@H](O)[C@H](n1cc(-c3cc(F)c(F)c(F)c3)nn1)[C@H]2O)c1cccc2ncc(Br)cc12 [Compound A208, 3-bromo-N-((4R,5S,7R,8R,9S,10R)-8,10-dihydroxy-7-(hydroxymethyl)-9-(4-(3,4,5-trifluorophenyl)-1H-1,2,3-triazol-1-yl)-1,6-dioxaspiro[4.5]decan-4-yl)quinoline-5-carboxamide] | – |
| < 25 | – | CC(=O)N[C@H]1C(O)O[C@H](CO)[C@@H](O[C@@H]2O[C@H](CO)[C@H](O)[C@H](O)[C@H]2O)[C@@H]1O (stereo partly drawn) [LacNAc, N-acetyl-D-lactosamine, reference compound] | – |
| – | – | CC(C(=O)N[C@@H]1CCO[C@]12O[C@H](CO)[C@H](O)[C@H](n1cc(-c3cc(F)c(F)c(F)c3)nn1)[C@H]2O)c1cccc(Cl)c1 (single isomer, unassigned) [Compound A167] | % Inhibitory activity (at 20 μM) (Table 2): C (inhibition rate was 25%˜ to 50%˜ (exclusive of 50%)) |
| – | > 75 | Cc1oc2ccccc2c1C(=O)N[C@@H]1CCO[C@]12O[C@H](CO)[C@H](O)[C@H](n1cc(-c3cc(F)c(F)c(F)c3)nn1)[C@H]2O [Compound A218, N-((4R,5S,7R,8R,9S,10R)-8,10-dihydroxy-7-(hydroxymethyl)-9-(4-(3,4,5-trifluorophenyl)-1H-1,2,3-triazol-1-yl)-1,6-dioxaspiro[4.5]decan-4-yl)-2-methylbenzofuran-3-carboxamide] | – |
| – | – | C[C@@H](O[C@@H]1[C@@H](n2cc(-c3cc(F)c(F)c(F)c3)nn2)[C@@H](O)[C@@H](CO)O[C@@]12CCCO2)C(=O)O [Compound A82, (R)-2-(((5S,7R,8R,9S,10R)-8-hydroxy-7-(hydroxymethyl)-9-(4-(3,4,5-trifluorophenyl)-1H-1,2,3-triazol-1-yl)-1,6-dioxaspiro[4.5]decan-10-yl)oxy)propanoic acid] | inhibition at 20 µM [3]: < 25% |
| – | > 75 | O=C(N[C@@H]1CCO[C@]12O[C@H](CO)[C@H](O)[C@H](n1cc(-c3cc(F)c(F)c(F)c3)nn1)[C@H]2O)c1cc(=O)[nH]c2ccc(Br)cc12 [Compound A252, 6-bromo-N-((4R,5S,7R,8R,9S,10R)-8,10-dihydroxy-7-(hydroxymethyl)-9-(4-(3,4,5-trifluorophenyl)-1H-1,2,3-triazol-1-yl)-1,6-dioxaspiro[4.5]decan-4-yl)-2-oxo-1,2-dihydroquinoline-4-carboxamide] | – |
| < 25 | – | O=C1CCCC2(N1)O[C@H](CO)[C@H](O)[C@H](n1cc(-c3cc(F)c(F)c(F)c3)nn1)[C@H]2OCc1ccccc1 (stereo partly drawn) [Compound A93, (2R,3R,4S,5R)-5-(benzyloxy)-3-hydroxy-2-(hydroxymethyl)-4-(4-(3,4,5-trifluorophenyl)-1H-1,2,3-triazol-1-yl)-1-oxa-7-azaspiro[5.5]undecan-8-one] | – |
| 25 to 50 | – | OC[C@H]1O[C@@]2(CCCCO2)[C@H](OCc2ccc3c(c2)OCO3)[C@@H](n2cc(-c3cc(F)c(F)c(F)c3)nn2)[C@H]1O [Compound A44, (2R,3R,4S,5R,6S)-5-(benzo[d][1,3]dioxol-5-ylmethoxy)-2-(hydroxymethyl)-4-(4-(3,4,5-trifluorophenyl)-1H-1,2,3-triazol-1-yl)-1,7-dioxaspiro[5.5]undecan-3-ol] | – |
| – | – | O=C(Cc1ccccc1)N[C@@H]1CCO[C@]12O[C@H](CO)[C@H](O)[C@H](n1cc(-c3cc(F)c(F)c(F)c3)nn1)[C@H]2O [Compound A146, N-((4R,5S,7R,8R,9S,10R)-8,10-dihydroxy-7-(hydroxymethyl)-9-(4-(3,4,5-trifluorophenyl)-1H-1,2,3-triazol-1-yl)-1,6-dioxaspiro[4.5]decan-4-yl)-2-phenylacetamide] | inhibition at 20 µM [3]: 25 to 50%; inhibition at 20 µM (read-out: % Inhibitory activity (at 20 μM), Table 3, found values): 40.7% |
| – | 25 to 50 | O=C(N[C@@H]1CCO[C@]12O[C@H](CO)[C@H](O)[C@H](n1cc(-c3cc(F)c(F)c(F)c3)nn1)[C@H]2O)c1ccc2c(Cl)cccc2c1 [Compound A195, 5-chloro-N-((4R,5S,7R,8R,9S,10R)-8,10-dihydroxy-7-(hydroxymethyl)-9-(4-(3,4,5-trifluorophenyl)-1H-1,2,3-triazol-1-yl)-1,6-dioxaspiro[4.5]decan-4-yl)-2-naphthamide] | – |
| < 25 | – | OC[C@H]1O[C@@]2(CCCO2)[C@H](OCc2cccc(C(F)(F)F)c2)[C@@H](n2cc(-c3cc(F)c(F)c(F)c3)nn2)[C@H]1O [Compound A90, (5S,7R,8R,9S,10R)-7-(hydroxymethyl)-10-((3-(trifluoromethyl)benzyl)oxy)-9-(4-(3,4,5-trifluorophenyl)-1H-1,2,3-triazol-1-yl)-1,6-dioxaspiro[4.5]decan-8-ol] | – |
| – | < 25 | OC[C@H]1O[C@@]2(CCCN(c3cccc4ccccc34)C2)[C@H](O)[C@@H](n2cc(-c3cc(F)c(F)c(F)c3)nn2)[C@H]1O [Compound A220, (2R,3R,4S,5R,6R)-2-(hydroxymethyl)-8-(naphthalen-1-yl)-4-(4-(3,4,5-trifluorophenyl)-1H-1,2,3-triazol-1-yl)-1-oxa-8-azaspiro[5.5]undecane-3,5-diol] | – |
| 25 to 50 | – | OC[C@H]1O[C@@]2(CCCO2)[C@H](OCc2ccc(C(F)(F)F)o2)[C@@H](n2cc(-c3cc(F)c(F)c(F)c3)nn2)[C@H]1O [Compound A19, (5S,7R,8R,9S,10R)-7-(hydroxymethyl)-10-((5-(trifluoromethyl)furan-2-yl)methoxy)-9-(4-(3,4,5-trifluorophenyl)-1H-1,2,3-triazol-1-yl)-1,6-dioxaspiro[4.5]decan-8-ol] | – |
| – | > 75 | O=C(N[C@@H]1CCO[C@]12O[C@H](CO)[C@H](O)[C@H](n1cc(-c3cc(F)c(F)c(F)c3)nn1)[C@H]2O)c1cccc2cnccc12 [Compound A247, N-((4R,5S,7R,8R,9S,10R)-8,10-dihydroxy-7-(hydroxymethyl)-9-(4-(3,4,5-trifluorophenyl)-1H-1,2,3-triazol-1-yl)-1,6-dioxaspiro[4.5]decan-4-yl)isoquinoline-5-carboxamide] | – |
